Experimental data: patent US12565501B2, “Muscarinic acetylcholine M1 receptor antagonists” (Contineum Therapeutics, Inc., priority 2019, dated 2026)

molecular target: T1, human M1 receptor (Homo sapiens, UniProt P11229); assay: In vitro functional assay of muscarinic acetylcholine receptor activity (aequorin calcium flux, reversal of EC80 acetylcholine response); type: cell-based; details: CHO-K1 cells stably expressing human M1 receptor with aequorin; acetylcholine at EC80; calcium flux (luminescence); read-out: M1 IC50
T1 sequence (P11229 1-460): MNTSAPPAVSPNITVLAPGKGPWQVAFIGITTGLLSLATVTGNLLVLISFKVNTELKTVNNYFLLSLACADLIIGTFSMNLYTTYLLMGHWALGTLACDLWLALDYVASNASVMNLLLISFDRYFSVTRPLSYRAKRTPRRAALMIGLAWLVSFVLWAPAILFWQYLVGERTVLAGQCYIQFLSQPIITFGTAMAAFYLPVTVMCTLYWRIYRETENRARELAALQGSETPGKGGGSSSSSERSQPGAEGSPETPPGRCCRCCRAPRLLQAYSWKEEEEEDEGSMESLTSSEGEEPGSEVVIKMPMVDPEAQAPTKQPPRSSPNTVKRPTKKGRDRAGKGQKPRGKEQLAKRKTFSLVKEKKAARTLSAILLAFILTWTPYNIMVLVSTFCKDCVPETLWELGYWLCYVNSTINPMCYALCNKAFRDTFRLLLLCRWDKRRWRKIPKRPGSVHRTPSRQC
Method in brief: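 Antagonist mode: compound (final 0.1% DMSO) and coelenterazine-loaded M1/aequorin CHO-K1 cells incubated 30 min in the dark before EC80 acetylcholine addition. Calcium flash integrated as 40 s luminescence AUC; IC50 derived from dose-response curves.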

First: N#Cc1ccc(N2C3CCC2CN(C(=O)CNC2(c4cccc(C#N)c4)CC2)C3)nc1 [Example 62, 6-(3-((1-(3-cyanophenyl)cyclopropyl)glycyl)-3,8-diazabicyclo[3.2.1]octan-8-yl)nicotinonitrile]
Second: COc1cccc(C2(NCCC(=O)N3CC4CCC(C3)N4c3ccc(C#N)cn3)CC2)c1 [Example 16, 6-(3-(3-((1-(3-methoxyphenyl)cyclopropyl)amino)propanoyl)-3,8-diazabicyclo[3.2.1]octan-8-yl)nicotinonitrile]
The IC50 of the first is higher: 0.1 to 1 µM for the first, 0.01 to 0.1 µM for the second.

`COc1cc([C@H](C)NCC(=O)N2CC3CCC(C2)N3c2ccc(C#N)cn2)ccc1F` [Example 66, 6-(3-(((S)-1-(4-fluoro-3-methoxyphenyl)ethyl)glycyl)-3,8-diazabicyclo[3.2.1]octan-8-yl)nicotinonitrile] and `COc1c(F)cccc1C(C)NCC(=O)N1CC2CCC(C1)N2c1ccc(C#N)cn1` (racemic) [Example 55, 6-(3-((1-(3-fluoro-2-methoxyphenyl)ethyl)glycyl)-3,8-diazabicyclo[3.2.1]octan-8-yl)nicotinonitrile] cannot be ordered by IC50: less than 0.01 µM for the first, less than 0.01 µM for the second.

Compared with `N#Cc1ccc(N2[C@@H]3CC[C@H]2CN(C(=O)CCNC2(c4ccc(F)nc4)CC2)C3)nc1` [Example 28, 6-(3-(3-((1-(6-fluoropyridin-3-yl)cyclopropyl)amino)propanoyl)-3,8-diazabicyclo[3.2.1]octan-8-yl)nicotinonitrile], `N#Cc1ccc(N2[C@@H]3CC[C@H]2CN(C(=O)CCNC2(c4cncc(F)c4)CC2)C3)nc1` [Example 30, 6-(3-(3-((1-(5-fluoropyridin-3-yl)cyclopropyl)amino)propanoyl)-3,8-diazabicyclo[3.2.1]octan-8-yl)nicotinonitrile] is higher in IC50: less than 0.01 µM for the first, 0.1 to 1 µM for the second. The first is the more potent here.

First: COc1cccc2c1CCN(CC(=O)N1CC3CCC(C1)N3c1ccc(C#N)cn1)C2C (racemic) [Example 121, 6-(3-(2-(5-methoxy-1-methyl-3,4-dihydroisoquinolin-2(1H)-yl)acetyl)-3,8-diazabicyclo[3.2.1]octan-8-yl)nicotinonitrile]
Second: COc1ccccc1[C@H](C)NCC(=O)N1CC2CCC(C1)N2c1ccc(C#N)cn1 [Example 65, 6-(3-(((S)-1-(2-methoxyphenyl)ethyl)glycyl)-3,8-diazabicyclo[3.2.1]octan-8-yl)nicotinonitrile]
The IC50 of the first is higher: 0.1 to 1 µM for the first, less than 0.01 µM for the second. The second is the more potent here.

First: CC(NCC(=O)N1CC2CCC(C1)N2c1ccc(C#N)cn1)c1ccc(F)cc1F (stereo in doubt) [Example 88, 6-(3-(((S)-1-(2,4-difluorophenyl)ethyl)glycyl)-3,8-diazabicyclo[3.2.1]octan-8-yl)nicotinonitrile]
Second: COc1cc([C@H](C)NCC(=O)N2C[C@H]3CC[C@@H](C2)N3c2ccc(C#N)cn2)ccn1 [Example 93, 6-(3-(((S)-1-(2-methoxypyridin-4-yl)ethyl)glycyl)-3,8-diazabicyclo[3.2.1]octan-8-yl)nicotinonitrile]
The IC50 of the first is higher: 1 to 10 µM for the first, less than 0.01 µM for the second.

First: N#Cc1ccc(N2C3CCC2CN(C(=O)COC2(c4cc(F)cc(C#N)c4)CC2)C3)nc1 [Example 292, 6-(3-(2-(1-(3-cyano-5-fluorophenyl)cyclopropoxy)acetyl)-3,8-diazabicyclo[3.2.1]octan-8-yl)nicotinonitrile]
Second: COc1cc(C2(OCC(=O)N3CC4CCC(C3)N4c3ccc(C#N)cn3)CCC2)cnn1 [Example 275, 6-(3-(2-(1-(6-methoxypyridazin-4-yl)cyclobutoxy)acetyl)-3,8-diazabicyclo[3.2.1]octan-8-yl)nicotinonitrile]
The IC50 of the first is higher: 0.1 to 1 µM for the first, 0.01 to 0.1 µM for the second. The second is the more potent here.

First: N#Cc1cnc(N2[C@@H]3CC[C@H]2CN(C(=O)CCNC2(c4ccc(F)c(F)c4)CC2)C3)nc1 [Example 44, 2-(3-(3-((1-(3,4-difluorophenyl)cyclopropyl)amino)propanoyl)-3,8-diazabicyclo[3.2.1]octan-8-yl)pyrimidine-5-carbonitrile]
Second: N#Cc1cc(N2[C@@H]3CC[C@H]2CN(C(=O)CCNC2(c4ccc(F)c(F)c4)CC2)C3)ccn1 [Example 43, 4-(3-(3-((1-(3,4-difluorophenyl)cyclopropyl)amino)propanoyl)-3,8-diazabicyclo[3.2.1]octan-8-yl)picolinonitrile]
The IC50 of the first is higher: 0.1 to 1 µM for the first, 0.01 to 0.1 µM for the second. The second is the more potent here.

First: COc1ccccc1C1(NCC(=O)N2CC3CCC(C2)N3c2ccc(C#N)cn2)CC1 [Example 97, 6-(3-((1-(2-methoxyphenyl)cyclopropyl)glycyl)-3,8-diazabicyclo[3.2.1]octan-8-yl)nicotinonitrile]
Second: N#Cc1ccc(N2C3CCC2CN(C(=O)CNC2(c4cccc(F)c4F)CC2)C3)nc1 [Example 70, 6-(3-((1-(2,3-difluorophenyl)cyclopropyl)glycyl)-3,8-diazabicyclo[3.2.1]octan-8-yl)nicotinonitrile]
The IC50 of the first is lower: less than 0.01 µM for the first, 0.1 to 1 µM for the second.

Compared with `COc1cc(C2(CCC(=O)N3CC4CCC(C3)N4c3ccc(C#N)cn3)CCC2)ccn1` [Example 164, 6-(3-(3-(1-(2-methoxypyridin-4-yl)cyclobutyl)propanoyl)-3,8-diazabicyclo[3.2.1]octan-8-yl)nicotinonitrile], `COc1cc(C2(NCCC(=O)N3CC4CCC(C3)N4c3ccc(C#N)cn3)CC2)ccn1` [Example 36, 6-(3-(3-((1-(2-methoxypyridin-4-yl)cyclopropyl)amino)propanoyl)-3,8-diazabicyclo[3.2.1]octan-8-yl)nicotinonitrile] is higher in IC50: less than 0.01 µM for the first, 1 to 10 µM for the second. The first is the more potent here.

Compared with `CC(SCC(=O)N1CC2CCC(C1)N2c1ccc(C#N)cn1)c1ccc(F)cc1` (racemic) [Example 133, 6-(3-(2-((1-(4-fluorophenyl)ethyl)thio)acetyl)-3,8-diazabicyclo[3.2.1]octan-8-yl)nicotinonitrile], `CC(c1ccc(F)cc1)[S+]([O-])CC(=O)N1CC2CCC(C1)N2c1ccc(C#N)cn1` (racemic) [Example 167, 6-(3-(2-((1-(4-fluorophenyl)ethyl)sulfinyl)acetyl)-3,8-diazabicyclo[3.2.1]octan-8-yl)nicotinonitrile] is higher in IC50: 0.01 to 0.1 µM for the first, 0.1 to 1 µM for the second. The first is the more potent here.

`N#Cc1ccc(N2C3CCC2CN(C(=O)COCC2(c4ccccc4)CC2)C3)nc1` [Example 187, 6-(3-(2-((1-phenylcyclopropyl)methoxy)acetyl)-3,8-diazabicyclo[3.2.1]octan-8-yl)nicotinonitrile] and `C[C@H](OCC(=O)N1CC2CCC(C1)N2c1ccc(C#N)cn1)c1ccccc1` [Example 179, 6-(3-(2-((S)-1-phenylethoxy)acetyl)-3,8-diazabicyclo[3.2.1]octan-8-yl)nicotinonitrile] fall in the same range of IC50: 0.1 to 1 µM for the first, 0.1 to 1 µM for the second.

First: COc1ccc(C2(NCCC(=O)N3CC4CCC(C3)N4c3ccc(C#N)cn3)CC2)cc1 [Example 17, 6-(3-(3-((1-(4-methoxyphenyl)cyclopropyl)amino)propanoyl)-3,8-diazabicyclo[3.2.1]octan-8-yl)nicotinonitrile]
Second: N#Cc1ccc(N2[C@@H]3CC[C@H]2CN(C(=O)CCN2CCC2c2ccc(F)cc2)C3)nc1 (mixture of isomers) [Example 23, 6-(3-(3-(2-(4-fluorophenyl)azetidin-1-yl)propanoyl)-3,8-diazabicyclo[3.2.1]octan-8-yl)nicotinonitrile]
The IC50 of the first is lower: 0.1 to 1 µM for the first, 1 to 10 µM for the second.

First: CC(OCC(=O)N1CC2CCC(C1)N2c1ccc(C#N)cn1)c1cccc2ncnn12 (racemic) [Example 191, 6-(3-(2-(1-([1,2,4]triazolo[1,5-a]pyridin-5-yl)ethoxy)acetyl)-3,8-diazabicyclo[3.2.1]octan-8-yl)nicotinonitrile]
Second: CC(SCCC(=O)N1CC2CCC(C1)N2c1ccc(C#N)cn1)c1ccccc1 (racemic) [Example 134, 6-(3-(3-((1-phenylethyl)thio)propanoyl)-3,8-diazabicyclo[3.2.1]octan-8-yl)nicotinonitrile]
The IC50 of the first is lower: 0.01 to 0.1 µM for the first, 0.1 to 1 µM for the second. The first is the more potent here.

`CC(c1ccccc1)[S+]([O-])CCC(=O)N1CC2CCC(C1)N2c1ccc(C#N)cn1` (racemic) [Example 169, 6-(3-(3-((1-phenylethyl)sulfinyl)propanoyl)-3,8-diazabicyclo[3.2.1]octan-8-yl)nicotinonitrile] and `CC(c1ccccc1)S(=O)(=O)CC(=O)N1CC2CCC(C1)N2c1ccc(C#N)cn1` (racemic) [Example 172, 6-(3-(2-((1-phenylethyl)sulfonyl)acetyl)-3,8-diazabicyclo[3.2.1]octan-8-yl)nicotinonitrile] cannot be ordered by IC50: 1 to 10 µM for the first, greater than 1 µM for the second.

Compared with `CC(c1ccccc1Br)S(=O)(=O)CCC(=O)N1CC2CCC(C1)N2c1ccc(C#N)cn1` (racemic) [Example 176, 6-(3-(3-((1-(2-bromophenyl)ethyl)sulfonyl)propanoyl)-3,8-diazabicyclo[3.2.1]octan-8-yl) nicotinonitrile], `N#Cc1ccc(N2C3COCC2CN(C(=O)CNC2(c4ccc(F)cc4F)CC2)C3)nc1` [Example 78, 6-(7-((1-(2,4-difluorophenyl)cyclopropyl)glycyl)-3-oxa-7,9-diazabicyclo[3.3.1]nonan-9-yl)nicotinonitrile] is lower in IC50: 1 to 10 µM for the first, 0.1 to 1 µM for the second. The second is the more potent here.

Compared with `N#Cc1ccc(N2C[C@@H]3CC[C@H]2CN3C(=O)CNC2(c3ccc(F)cc3F)CC2)nc1` [Example 83, 6-((1S,4S)-5-((1-(2,4-difluorophenyl)cyclopropyl)glycyl)-2,5-diazabicyclo[2.2.2]octan-2-yl)nicotinonitrile], `COc1cc(C(F)(F)CCC(=O)N2CC3CCC(C2)N3c2ccnc(C#N)c2)ccn1` [Example 156, 4-(3-(4,4-difluoro-4-(2-methoxypyridin-4-yl)butanoyl)-3,8-diazabicyclo[3.2.1]octan-8-yl)picolinonitrile] is lower in IC50: 1 to 10 µM for the first, 0.1 to 1 µM for the second.
